Results taken from patent publication US11149028B2, “Methods for treating melanoma using small molecules” (NOVA SOUTHEASTERN UNIVERSITY, priority 2016, dated 2021).

Assays:
[1] = tested on: mouse embryonic fibroblasts (MEF); experiment: Viability of mouse embryonic fibroblasts; format: cell-based
Experimental: (§1) Cells were plated in 384-well plates in 8 μL of media. Test compounds and dabrafenib (pharmacological assay control) were prepared as 10-point, 1:3 serial dilutions starting at 300 μM, then added to the cells (4 μL per well) using the Biomek Plates were incubated for 72 h at 37° C., 5% CO2 and 95% relative humidity. After incubation, 4 μL of CellTiter-Glo® (Promega cat #: G7570) were added to each well, and incubated for 15 min at room temperature. Luminescence was recorded using a Biotek Synergy H4 multimode microplate reader. Viability was expressed as a percentage relative to wells containing media only (0%) and wells containing cells treated with DMSO only (100%). Three parameters were calculated on a per-plate basis: (a) the signal-to-background ratio (SB); (b) the coefficient for variation [CV; CV=(standard deviation/mean)×100)] for all compound test wells; and (c) the Z′-factor (18). The IC50 value of the pharmacological control (dabrafenib, LC Laboratories #G-4408) was also calculated to ascertain the assay robustness. In case of viability rescue assays, cells were pre-treated with caspase, calpain, and autophagy inhibitors for 1-3 h before addition of test compounds. Time course viability assay was done with luminescence measurements performed at 4, 24, 48, and 72 h.

[2] = tested on: WM266-4 cells; experiment: CellTiter-Glo cell viability assay, WM266-4 (including rescue assays); format: cell-based, human; conditions: for viability of WM266-4 cells: 24 h after addition
Experimental: as §1

[3] = tested on: lamin A/C; experiment: DARTS (drug affinity responsive target stability); format: binding, human
From the text: (FIG. 26A, DARTS workflow). Proteins that bind the lead present as bands of differential intensity on SDS-PAGE and are identified using proteomic techniques. […] Bands from non-treated control and sample treated with 2155-14 were excised, trypsinized, and run on LC/MS/MS. […] In addition to lamin A/C, lamin B2, transketolase (TKT), and cytoskeleton-associated protein 4 (CKAP4) were also identified as possible targets (Table 7 shown in FIG. 27). The exclusive unique peptide counts were too close to make the identification of one over the other with confidence.
WM266-4 melanoma cell lysates were prepared using a routine protocol with commercially available M-PER buffer supplemented with protease and phosphatase inhibitors. Lysates were split into control and compound test portions, and DMSO and 2155-14 were added to the respective lysate portions and incubated at RT for 1 h to allow for 2155-14 binding to its target(s). Pronase dilutions (1:100. 1:300, 1:1000. 1:3000 and 1:10000, Roche #10165921001) were prepared from 10 mg/mL stock. Lysates were split into 5 aliquots, and pronase dilutions were added to lysate aliquots and incubated at RT for 30 min. […]
Each sample was analyzed by liquid-chromatography-tandem MS (LC-MS/MS) using an EASY-nLC 1000 system coupled to a Q Exactive mass spectrometer (Thermo Fisher Scientific). […]

[4] = target: HDAC1 (Homo sapiens, UniProt Q13547); experiment: HDAC inhibition testing; format: biochemical; conditions: up to 100 μM
[5] = target: HDAC2 (Homo sapiens, UniProt Q92769); experiment: HDAC inhibition testing; format: biochemical; conditions: up to 100 μM
[6] = target: HDAC6 (Homo sapiens, UniProt Q9UBN7); experiment: HDAC inhibition testing; format: biochemical; conditions: up to 100 μM
[7] = tested on: SKMEL-28 melanoma cell line; experiment: Hexosaminidase viability assay, SKMEL-28; format: cell-based; conditions: Homo sapiens, SK-MEL-28; for IC50: V600EBRAF mutation
Experimental: (§2) Hexosaminidase assay was used to study the effects of 2155-14 and 2155-18 on cell viability or cell proliferation of both B16/F-10 and SKMEL-28 cells
(§3) (Landegren, U. Measurement of cell numbers by means of the endogenous enzyme hexosaminidase. Applications to detection of lymphokines and cell surface antigens. J Immunol Methods 1984, 67, 379-388). In brief, cells were plated in 96 well plates, grown overnight and treated the next day with increasing concentrations of compounds (0-50 μM) for 48 h. After 48 h of treatment, media was discarded and cells were washed with PBS to remove residual media from wells. Hexosaminidase substrate (75 μL) (Sigma Aldrich; cat #N9376) was added to each well, incubated at 37° C. for 30 min followed by addition of 112.5 μL of developer into each well. Final absorbance was measured at λ=405 nm. Cell growth was calculated as percent viability=[([…])×100], where A and B were the absorbance of treated and control cells, respectively.

[8] = tested on: B16/F10 murine metastatic melanoma; experiment: Hexosaminidase viability assay, B16/F10; format: cell-based; conditions: Mus musculus; for IC50: p53 mutation
Experimental: as §2, §3

[9] = tested on: HEPG2 cell line; experiment: Viability of HEPG2 liver cancer cells; format: cell-based
[10] = tested on: caspase 3/7 in WM266-4 cells; experiment: Caspase 3/7 activity assay; format: cell-based, human; conditions: 0 and 4 h
Experimental: WM266-4 and M14 cells were plated in 384-well plates in 5 μL of complete media (EMEM and RPMI-1640, respectively). 5 μL of 200 μM 2155-14 and 2155-18 were added to the cells. Plates were incubated at 37° C., 5% CO2 and 95% relative humidity for various lengths of time. After incubation, 5 μL of caspase 3/7, caspase 8, and caspase 9 Glo® reagent (Promega cat #: G7570) were added to each well, and incubated for 15 min at room temperature. Luminescence was recorded using a Biotek Synergy H4 multimode microplate reader.

Sequence of HDAC6 (Q9UBN7 whole entry, species assumed): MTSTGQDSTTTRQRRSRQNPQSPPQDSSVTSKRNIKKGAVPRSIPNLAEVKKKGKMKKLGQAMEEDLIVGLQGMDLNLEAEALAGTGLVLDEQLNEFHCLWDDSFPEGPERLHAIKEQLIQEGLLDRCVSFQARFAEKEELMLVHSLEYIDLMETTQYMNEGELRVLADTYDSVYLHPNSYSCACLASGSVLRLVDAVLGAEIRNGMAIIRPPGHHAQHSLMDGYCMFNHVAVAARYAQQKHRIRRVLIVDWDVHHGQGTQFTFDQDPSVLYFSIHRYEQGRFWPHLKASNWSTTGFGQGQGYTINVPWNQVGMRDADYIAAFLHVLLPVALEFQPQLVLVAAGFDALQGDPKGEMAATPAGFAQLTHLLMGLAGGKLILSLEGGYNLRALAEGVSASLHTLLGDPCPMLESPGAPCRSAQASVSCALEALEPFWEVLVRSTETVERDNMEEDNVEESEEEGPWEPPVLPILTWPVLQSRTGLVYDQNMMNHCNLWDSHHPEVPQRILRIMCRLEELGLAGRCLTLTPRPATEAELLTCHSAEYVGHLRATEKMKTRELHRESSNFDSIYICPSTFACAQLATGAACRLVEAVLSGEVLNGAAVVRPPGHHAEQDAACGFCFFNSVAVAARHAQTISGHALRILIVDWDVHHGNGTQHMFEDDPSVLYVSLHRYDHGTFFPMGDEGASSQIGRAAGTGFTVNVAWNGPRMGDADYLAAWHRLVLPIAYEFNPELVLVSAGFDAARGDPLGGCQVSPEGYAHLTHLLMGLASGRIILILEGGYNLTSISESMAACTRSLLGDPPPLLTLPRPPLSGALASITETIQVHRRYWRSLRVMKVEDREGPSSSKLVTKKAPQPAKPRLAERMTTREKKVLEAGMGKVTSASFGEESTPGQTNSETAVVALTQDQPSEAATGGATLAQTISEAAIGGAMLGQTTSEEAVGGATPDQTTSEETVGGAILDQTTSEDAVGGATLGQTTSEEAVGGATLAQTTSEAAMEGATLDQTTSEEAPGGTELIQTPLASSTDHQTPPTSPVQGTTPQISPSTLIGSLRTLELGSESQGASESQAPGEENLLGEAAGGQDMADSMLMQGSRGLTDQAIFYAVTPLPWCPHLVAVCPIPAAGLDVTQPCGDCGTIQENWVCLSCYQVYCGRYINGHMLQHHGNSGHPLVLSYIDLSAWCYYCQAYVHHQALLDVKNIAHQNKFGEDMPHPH
Sequence of HDAC1 (Q13547 whole entry, species assumed): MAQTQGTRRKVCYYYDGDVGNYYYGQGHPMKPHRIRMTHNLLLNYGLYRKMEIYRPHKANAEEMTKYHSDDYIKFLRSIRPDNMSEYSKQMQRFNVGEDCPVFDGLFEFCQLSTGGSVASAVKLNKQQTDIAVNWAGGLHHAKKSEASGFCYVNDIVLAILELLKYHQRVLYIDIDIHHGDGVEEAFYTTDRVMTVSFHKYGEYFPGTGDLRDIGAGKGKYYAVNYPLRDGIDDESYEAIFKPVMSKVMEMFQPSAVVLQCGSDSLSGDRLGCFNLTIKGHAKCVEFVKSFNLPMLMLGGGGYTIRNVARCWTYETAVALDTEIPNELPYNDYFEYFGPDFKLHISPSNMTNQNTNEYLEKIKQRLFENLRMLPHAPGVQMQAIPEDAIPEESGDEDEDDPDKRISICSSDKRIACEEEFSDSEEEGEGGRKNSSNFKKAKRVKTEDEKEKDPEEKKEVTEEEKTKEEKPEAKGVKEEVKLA
Sequence of HDAC2 (Q92769 whole entry): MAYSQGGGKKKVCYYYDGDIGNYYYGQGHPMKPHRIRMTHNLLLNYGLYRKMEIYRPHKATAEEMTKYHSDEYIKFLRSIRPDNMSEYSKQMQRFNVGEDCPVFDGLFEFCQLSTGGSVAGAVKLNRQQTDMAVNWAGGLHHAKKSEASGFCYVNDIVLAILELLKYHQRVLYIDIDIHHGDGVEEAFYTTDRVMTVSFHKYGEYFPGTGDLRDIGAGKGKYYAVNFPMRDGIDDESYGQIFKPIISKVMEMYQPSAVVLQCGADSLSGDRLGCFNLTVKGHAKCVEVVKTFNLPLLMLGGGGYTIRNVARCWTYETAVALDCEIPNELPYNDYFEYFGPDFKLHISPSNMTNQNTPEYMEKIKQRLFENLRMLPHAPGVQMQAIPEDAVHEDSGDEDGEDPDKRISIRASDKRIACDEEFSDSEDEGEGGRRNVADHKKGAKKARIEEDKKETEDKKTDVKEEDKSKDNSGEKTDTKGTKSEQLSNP

Compound	toxicity to mouse embryonic fibroblasts [1]	inhibition of WM266-4 viability ([2]; 100 μM, 72 h)	viability after pre-incubation with caspase inhibitors ([2]; 24 h, 10 μM Z-IETD-FMK and Z-VAD-FMK)	viability of WM266-4 cells [2]	viability of WM266-4 cells with caspase inhibitor pre-treatment ([2]; 48 h of exposure) [%]	IC50 ([2]; 72 h) [nM]	IC50 ([2]; 72 h, listed as 2529-1) [nM]	DARTS-LC-MS/MS identification of protected band ([3]; 100 μM, 1:1,000 pronase)	protection of lamin A/C from pronase ([3]; WM266-4 lysates, western blot)	HDAC1 inhibition [4]	HDAC2 inhibition [5]	HDAC6 inhibition [6]	IC50 [7] [nM]	cytotoxicity at 10 µM ([7]; starting at 10 μM, read-out: inhibition of SKMEL-28 viability) [%]	IC50 [8] [nM]	cytotoxicity at 10 µM ([8]; starting at 10 μM, read-out: inhibition of B16/F10 viability) [%]	selectivity against HEPG2 cell line [9]	caspase 3/7 activity vs untreated control [10]
O=C1NC[C@H](Cc2ccccc2)N(C[C@@H]2CCCN2C[C@@H](CC2CCCCC2)N2C[C@H](Cc3ccc(O)cc3)N(CCc3ccccc3)C(=O)C2=O)C1=O [Compound 2155-14, (S)-1((R)-1((S)-2-(((S)-6-benzyl-2,3-dioxopiperazin-1-yl)methyl)pyrrolidin-1-yl)-3-cyclohexylpropan-2-yl)-5-(4-hydroxybenzyl)-4-phenethylpiperazine-2,3-dione]	not toxic	completely inhibited viability	almost completely restored	impaired	~25	4000 ± 500	1500 ± 200	Lamin A/C was the protein with the highest score	protects these proteins from pronase proteolysis	lack of HDAC inhibition	lack of HDAC inhibition	lack of HDAC inhibition	563 ± 40	~100	2700 ± 200	~100	selective	not statistically different from untreated control
O=C1NC[C@H](Cc2ccccc2)N(C[C@@H]2CCCN2C[C@H](Cc2ccccc2)N2C[C@H](Cc3ccc(O)cc3)N(CCC34CC5CC(CC(C5)C3)C4)C(=O)C2=O)C1=O [Compound 2155-18, (S)-4-(2-(adamantan-1yl)ethyl)-1-((S)-1-((S)-2-(((S)-6-benzyl-2,3-dioxopiperazin-1-yl)methyl)pyrrolidin-1-yl)-3-phenylpropan-2-yl)-5-(4-hydroxybenzyl)piperazine-2,3-dione]	not toxic			impaired						lack of HDAC inhibition	lack of HDAC inhibition	lack of HDAC inhibition	890 ± 70		1150		selective	not statistically different from untreated control
